In the SangsterLogP compilation:

A logP of -0.95 was found for CC1NC(=O)NC1=O (configuration not stated) in this work. A logP of 2.28 was found for CN1C(=O)NC(c2ccccc2)(c2ccccc2)C1=O in this work. A logP of 2.84 was found for O=C1NC(Cc2ccccc2)C(=O)N1Cc1ccccc1 (configuration not stated) in this work. A logP of 0.82 was found for O=C1CNC(=O)N1Cc1ccccc1 in this work. A logP of 1.61 was found for CCN1C(=O)NC(Cc2ccccc2)C1=O (configuration not stated) in this work. A logP of 0.14 was found for CN1CC(=O)N(c2ccccc2)C1=O in this work. A logP of 0.35 was found for CC(C)CC1NC(=O)NC1=O (configuration not stated) in this work. A logP of 2.46 was found for O=C1NC(=O)C(Cc2ccccc2)(Cc2ccccc2)N1 in this work. A logP of -1.53 was found for O=C1CNC(=O)N1 in this work. A logP of 2.27 was found for O=C1NC(Cc2ccccc2)C(=O)N1c1ccccc1 (configuration not stated) in this work. A logP of -0.36 was found for CC(C)C1NC(=O)NC1=O (configuration not stated) in this work. A logP of 1.69 was found for CCC1(c2ccccc2)NC(=O)N(C)C1=O (configuration not stated) in this work.
